# Patent US10358463B2, “Immunomodulators” (BRISTOL-MYERS SQUIBB COMPANY, priority 2016, dated 2019)
# Numbered stars: 1 amine (or outer) side, 2 acyl side, 3 side chain; on linkers, the order of the positions; unused ones are H or OH. Bridge positions count the residues as written; N and C are the ends. Square brackets hold non-standard residues; d marks the D form. Peptide text beside a SMILES is read from it. ξ: configuration not given here. Trp(1-CH2CONHSO2Me) = CS(=O)(=O)NC(=O)Cn1cc(C[C@H](N)C(=O)O)c2ccccc21; Trp(7-aza,1-CH2COOH) = N[C@@H](Cc1cn(CC(=O)O)c2ncccc12)C(=O)O; X1 = O=C(O)Cn1c(C(=O)O)c(C[C@H](N[*:1])C(=O)[*:2])c2ccccc21; X17 = O=C([C@H](Cc1cn(Cc2nnn[nH]2)c2ccccc12)N[*:1])[*:2]; Ala(4-isoquinolinyl) = N[C@@H](Cc1cncc2ccccc12)C(=O)O; X11 = O=C(O)Cc1nc(C[C@H](N[*:1])C(=O)[*:2])c2n1CCCC2; X13 = O=C(O)Cc1nc(C[C@H](N[*:1])C(=O)[*:2])c2ccccn12; X4 = Cc1cccc2c(CC(N[*:1])C(=O)[*:2])n[nH]c12; X6 = O=C([C@H](Cc1ccc2cnccc2c1)N[*:1])[*:2]; Phe(4-Cl) = N[C@@H](Cc1ccc(Cl)cc1)C(=O)O; Hyp = O=C(O)[C@@H]1C[C@@H](O)CN1; NMeNle = CCCC[C@H](NC)C(=O)O; Pen = CC(C)(S)[C@H](N)C(=O)O; Pip = O=C(O)[C@@H]1CCCCN1; NMeA = CN[C@@H](C)C(=O)O; Dab = NCC[C@H](N)C(=O)O; Dap = NC[C@H](N)C(=O)O; ξP = O=C(O)C1CCCN1; Sar = CNCC(=O)O
# Target: T1, PD-1-Ig binding to PD-L1-TVMV-His (PD-L1-His) (Homo sapiens, UniProt Q9NZQ7)
# T1 construct: hPDL1 (19-239)-TVMV-His; TVMV protease cleavage site (C); made in house; host or cells: HEK293T cells
# T1 sequence (Q9NZQ7 with tags, fused parts or gaps): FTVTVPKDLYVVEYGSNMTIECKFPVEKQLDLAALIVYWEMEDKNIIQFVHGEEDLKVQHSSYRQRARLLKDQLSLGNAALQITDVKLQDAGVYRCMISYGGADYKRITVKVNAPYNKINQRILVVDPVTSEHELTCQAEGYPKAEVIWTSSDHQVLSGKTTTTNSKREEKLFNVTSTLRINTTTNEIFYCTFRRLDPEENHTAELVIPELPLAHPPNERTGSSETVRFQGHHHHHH
# Assay: PD-1/PD-L1 Homogenous Time-Resolved Fluorescence (HTRF) binding assay
# Settings: PD-1-Ig (20 nM)/PD-L1-His (10 nM)
# Excerpt: The ability of the macrocyclic peptides of the present disclosure to bind to PD-L1 was investigated using a PD-1/PD-L1 Homogenous Time-Resolved Fluorescence (HTRF) binding assay.
# Homogenous Time-Resolved Fluorescence (HTRF) Assays of Binding of Soluble PD-1 to Soluble PD-L1. Soluble PD-1 and soluble PD-L1 refers to proteins with carboxyl-end truncations that remove the transmembrane-spanning regions and are fused to heterologous sequences, specifically the Fc portion of the human immunoglobuling G sequence (Ig) or the hexahistidine epitope tag (His). All binding studies were performed in an HTRF assay buffer consisting of dPBS supplemented with 0.1% (w/v) bovine serum albumin and 0.05% (v/v) Tween-20. For the PD-1-Ig/PD-L1-His binding assay, inhibitors were pre-incubated with PD-L1-His (10 nM final) for 15 m in 4 μl of assay buffer, followed by addition of PD-1-Ig (20 nM final) in 1 μl of assay buffer and further incubation for 15 m. PD-L1 fusion proteins from either human, cynomologous macaques, mouse, or other species were used. HTRF detection was achieved using europium crypate-labeled anti-Ig monoclonal antibody (1 nM final) and allophycocyanin (APC) labeled anti-His monoclonal antibody (20 nM final). Antibodies were diluted in HTRF detection buffer and 5 μl was dispensed on top of binding reaction. The reaction was allowed to equilibrate for 30 minutes and signal (665 nm/620 nm ratio) was obtained using an EnVision fluorometer. Additional binding assays were established between PD-1-Ig/PD-L2-His (20 and 5 nM, respectively), CD80-His/PD-L1-Ig (100 and 10 nM, respectively) and CD80-His/CTLA4-Ig (10 and 5 nM, respectively). Binding/competition studies between biotinylated Compound No. 71 and human PD-L1-His were performed as follows. Macrocyclic peptide inhibitors were pre-incubated with PD-L1-His (10 nM final) for 60 minutes in 4 μl of assay buffer followed by addition of biotinylated Compound No. 71 (0.5 nM final) in 1 μl of assay buffer. Binding was allowed to equilibrate for 30 minutes followed by addition of europium crylated labeled Streptavidin (2.5 pM final) and APC-labeled anti-His (20 nM final) in 5 μl of HTRF buffer. The reaction was allowed to equilibrate for 30 m and signal (665 nm/620 nm ratio) was obtained using an EnVision fluorometer.
# Recombinant Proteins. Carboxyl-truncated human PD-1 (amino acids 25-167) with a C-terminal human Ig epitope tag [hPD-1 (25-167)-3S-IG] and human PD-L1 (amino acids 18-239) with a C-terminal His epitope tag [hPD-L1(19-239)-tobacco vein mottling virus protease cleavage site (TVMV)-His] were expressed in HEK293T cells and purified sequentially by recombinant Protein A affinity chromatography and size exclusion chromatography. Human PD-L2-His (Sino Biologicals), CD80-His (Sino Biologicals), CTLA4-Ig (RnD Systems) were all obtained through commercial sources.
Structure (SMILES),IC50 (numeric value),IC50 (range class)
CCCC[C@H]1C(=O)N(C)[C@@H](CCCC)C(=O)N[C@@H](C)C(=O)N[C@H](C(=O)NCC(N)=O)CSCC(=O)N[C@@H](Cc2ccc(O)cc2)C(=O)N(C)[C@@H](C)C(=O)N[C@@H](CC(N)=O)C(=O)N2CCCC2C(=O)N[C@@H](Cc2cnc[nH]2)C(=O)N[C@@H](CCC(N)=O)C(=O)N2C[C@H](O)C[C@H]2C(=O)N[C@@H](Cc2c[nH]c3ccccc23)C(=O)N[C@@H](CO)C(=O)NC(Cc2n[nH]c3c(C)cccc23)C(=O)N1C (stereo partly drawn) [Example 1288] ({CH2CO}-Y[NMeA]N[ξP]HQ[Hyp]WS[X4][NMeNle][NMeNle]ACG-NH2; thioether N-14),7140 nM,–
CCCC[C@H]1C(=O)N(C)[C@@H](CCCC)C(=O)N[C@@H](CCCNC(=N)N)C(=O)N[C@H](C(=O)NCC(N)=O)CSCC(=O)N[C@@H](Cc2ccc(O)cc2)C(=O)N(C)[C@@H](C)C(=O)N[C@@H](CC(N)=O)C(=O)N2CCC[C@H]2C(=O)N[C@@H](Cc2cnc[nH]2)C(=O)N[C@@H](CC(C)C)C(=O)N2C[C@H](O)C[C@H]2C(=O)N[C@@H](Cc2c[nH]c3ccccc23)C(=O)N[C@@H](CO)C(=O)N[C@@H](Cc2cncc3ccccc23)C(=O)N1C [Example 1254] ({CH2CO}-Y[NMeA]NPHL[Hyp]WS[Ala(4-isoquinolinyl)][NMeNle][NMeNle]RCG-NH2; thioether N-14),–,10 to 99 nM
CCCC[C@H]1C(=O)N(C)[C@@H](CCCC)C(=O)N[C@@H](CC(C)C)C(=O)N[C@H](C(=O)NCC(N)=O)CSCC(=O)N[C@@H](Cc2ccc(O)cc2)C(=O)N(C)[C@@H](C)C(=O)N[C@@H](CC(=O)O)C(=O)N2CCC[C@H]2C(=O)N[C@@H](Cc2cnc[nH]2)C(=O)N[C@@H](CCCCN)C(=O)N2C[C@H](O)C[C@H]2C(=O)N[C@@H](Cc2c[nH]c3ccccc23)C(=O)N[C@@H](CCCCN)C(=O)N[C@@H](Cc2cn(Cc3nnn[nH]3)c3ccccc23)C(=O)N1C [Example 1002],–,1 to 9.9 nM
CCCC[C@H]1C(=O)N(C)[C@@H](CCCC)C(=O)N[C@@H](CC(C)C)C(=O)N[C@H](C(=O)NCC(N)=O)CSCC(=O)N[C@@H](Cc2ccc(O)cc2)C(=O)N(C)[C@@H](C)C(=O)N[C@@H](CC(N)=O)C(=O)N2CCC[C@H]2C(=O)N[C@@H](CN)C(=O)N[C@@H](CC(C)C)C(=O)N2C[C@H](O)C[C@H]2C(=O)N[C@@H](Cc2c[nH]c3ccccc23)C(=O)N[C@@H](CCN)C(=O)N[C@@H](Cc2nc(CC(=O)O)n3ccccc23)C(=O)N1C [Example 1016] ({CH2CO}-Y[NMeA]NP[Dap]L[Hyp]W[Dab][X13][NMeNle][NMeNle]LCG-NH2; thioether N-14),–,1 to 9.9 nM
CCCC[C@H]1C(=O)N(C)[C@@H](CCCC)C(=O)N[C@@H](CCCNC(=N)N)C(=O)N[C@H](C(=O)NCC(N)=O)CSCC(=O)N[C@@H](Cc2ccc(O)cc2)C(=O)N(C)[C@@H](C)C(=O)N[C@@H](CC(N)=O)C(=O)N2CCC[C@H]2C(=O)N[C@@H](Cc2cnc[nH]2)C(=O)N[C@@H](CC(C)C)C(=O)N2C[C@H](O)C[C@H]2C(=O)N[C@@H](Cc2c[nH]c3ccccc23)C(=O)N[C@@H](CO)C(=O)N[C@@H](Cc2ccc3cnccc3c2)C(=O)N1C [Example 0001] ({CH2CO}-Y[NMeA]NPHL[Hyp]WS[X6][NMeNle][NMeNle]RCG-NH2; thioether N-14),–,100 to 990 nM
"CCCC[C@H]1C(=O)N(C)[C@@H](CCCC)C(=O)N[C@@H](CC(C)C)C(=O)N[C@H](C(=O)NCC(N)=O)CSCC(=O)N[C@@H](Cc2ccc(O)cc2)C(=O)N(C)[C@@H](C)C(=O)N[C@@H](CC(N)=O)C(=O)N2CCC[C@H]2C(=O)N[C@@H](CN)C(=O)N[C@@H](CC(C)C)C(=O)N2C[C@H](O)C[C@H]2C(=O)N[C@@H](Cc2c[nH]c3ccccc23)C(=O)N[C@@H](CCN)C(=O)N[C@@H](Cc2cn(CC(=O)O)c3ncccc23)C(=O)N1C [Example 10505] ({CH2CO}-Y[NMeA]NP[Dap]L[Hyp]W[Dab][Trp(7-aza,1-CH2COOH)][NMeNle][NMeNle]LCG-NH2; thioether N-14)",–,10 to 99 nM
CCCC[C@H]1C(=O)N(C)[C@@H](CCCC)C(=O)N[C@@H](CC(C)C)C(=O)N[C@H](C(=O)NCC(N)=O)CSCC(=O)N[C@@H](Cc2ccc(O)cc2)C(=O)N(C)[C@@H](C)C(=O)N[C@@H](CC(N)=O)C(=O)N2CCC[C@H]2C(=O)N[C@@H](CN)C(=O)N[C@@H](CC(C)C)C(=O)N2C[C@H](O)C[C@H]2C(=O)N[C@@H](Cc2c[nH]c3ccccc23)C(=O)N[C@@H](CCN)C(=O)N[C@@H](Cc2cn(Cc3nnn[nH]3)c3ccccc23)C(=O)N1C [Example 1020] ({CH2CO}-Y[NMeA]NP[Dap]L[Hyp]W[Dab][X17][NMeNle][NMeNle]LCG-NH2; thioether N-14),–,> 1000 nM
CCCC[C@H]1C(=O)N(C)[C@@H](CCCC)C(=O)N[C@@H](CC(C)C)C(=O)N[C@H](C(=O)NCC(N)=O)CSCC(=O)N[C@@H](Cc2ccc(O)cc2)C(=O)N(C)[C@@H](C)C(=O)N[C@@H](CC(N)=O)C(=O)N2CCC[C@H]2C(=O)N[C@@H](CN)C(=O)N[C@@H](CC(C)C)C(=O)N2C[C@H](O)C[C@H]2C(=O)N[C@@H](Cc2c[nH]c3ccccc23)C(=O)N[C@@H](CCN)C(=O)N[C@@H](Cc2nc(CC(=O)O)n3c2CCCC3)C(=O)N1C [Example 1009] ({CH2CO}-Y[NMeA]NP[Dap]L[Hyp]W[Dab][X11][NMeNle][NMeNle]LCG-NH2; thioether N-14),–,10 to 99 nM
CCCC[C@H]1C(=O)N(C)[C@@H](CCCC)C(=O)N[C@@H](CC(C)C)C(=O)N[C@H](C(N)=O)C(C)(C)SCC(=O)N[C@@H](Cc2ccc(Cl)cc2)C(=O)N2CCCC[C@H]2C(=O)N[C@@H](CC(=O)O)C(=O)N2CCC[C@H]2C(=O)N[C@@H](Cc2cnc[nH]2)C(=O)N[C@@H](CCC(=O)O)C(=O)N2C[C@H](O)C[C@H]2C(=O)N[C@@H](Cc2c[nH]c3ccccc23)C(=O)N[C@@H](CCN)C(=O)N[C@@H](Cc2cn(CC(=O)NS(C)(=O)=O)c3ccccc23)C(=O)N1C [Example 1008] ({CH2CO}-[Phe(4-Cl)][Pip]DPHE[Hyp]W[Dab][Trp(1-CH2CONHSO2Me)][NMeNle][NMeNle]L[Pen]-NH2; thioether N-14),–,1 to 9.9 nM
CCCC[C@H]1C(=O)N(C)[C@@H](CCCC)C(=O)N[C@@H](CC(C)C)C(=O)N[C@H](C(N)=O)C(C)(C)SCC(=O)N[C@@H](Cc2ccc(O)cc2)C(=O)N2CCCC[C@H]2C(=O)N[C@@H](CC(=O)O)C(=O)N2CCC[C@H]2C(=O)N[C@@H](CN)C(=O)N[C@@H](CCC(=O)O)C(=O)N2C[C@H](O)C[C@H]2C(=O)N[C@@H](Cc2c[nH]c3ccccc23)C(=O)N[C@@H](CCN)C(=O)N[C@@H](Cc2cn(CC(=O)NS(C)(=O)=O)c3ccccc23)C(=O)N1C [Example 1011] ({CH2CO}-Y[Pip]DP[Dap]E[Hyp]W[Dab][Trp(1-CH2CONHSO2Me)][NMeNle][NMeNle]L[Pen]-NH2; thioether N-14),–,1 to 9.9 nM
CCCC[C@H]1C(=O)N(C)[C@@H](CCCC)C(=O)N[C@@H](CC(C)C)C(=O)N[C@H](C(N)=O)C(C)(C)SCC(=O)N[C@@H](Cc2ccc(OC)cc2)C(=O)N2CCCC[C@H]2C(=O)N[C@@H](CC(=O)O)C(=O)N2CCC[C@H]2C(=O)N[C@@H](CN)C(=O)N[C@@H](CCC(=O)O)C(=O)N2C[C@H](O)C[C@H]2C(=O)N[C@@H](Cc2c[nH]c3ccccc23)C(=O)N[C@@H](CCN)C(=O)N[C@@H](Cc2cn(CC(=O)NS(C)(=O)=O)c3ccccc23)C(=O)N1C [Example 1004] ({CH2CO}-Y(Me)[Pip]DP[Dap]E[Hyp]W[Dab][Trp(1-CH2CONHSO2Me)][NMeNle][NMeNle]L[Pen]-NH2; thioether N-14),–,1 to 9.9 nM
CCCC[C@H]1C(=O)N(C)[C@@H](CCCC)C(=O)N[C@@H](CC(C)C)C(=O)N[C@H](C(N)=O)CSCC(=O)N[C@@H](Cc2ccc(O)cc2)C(=O)N(C)[C@@H](C)C(=O)N[C@@H](CC(N)=O)C(=O)N(C)CC(=O)N[C@@H](CN)C(=O)N[C@@H](CC(C)C)C(=O)N2C[C@H](O)C[C@H]2C(=O)N[C@@H](Cc2c[nH]c3ccccc23)C(=O)N[C@@H](CCN)C(=O)N[C@@H](Cc2c(C(=O)O)n(CC(=O)O)c3ccccc23)C(=O)N1C [Example 1018] ({CH2CO}-Y[NMeA]N[Sar][Dap]L[Hyp]W[Dab][X1][NMeNle][NMeNle]LC-NH2; thioether N-14),–,10 to 99 nM
